Reference: ChEMBL document CHEMBL1141437, “Lipoperoxidation and cyclooxygenase enzyme inhibitory piperidine alkaloids from Cassia spectabilis green fruits” (J Nat Prod, 2007)

Tests used:
[1] = Inhibition of lipid peroxidation at 100 ppm after 21 mins; type: functional
[2] = DPPH radical scavenging activity assessed as absorption change at 60 ppm by spectrophotometry; type: functional
[3] = Inhibition of AAPH-induced lipid peroxidation; type: functional; details: dose or concentration not given here
[4] = target: T1, Prostaglandin G/H synthase 1 (Ovis aries) (UniProt P05979); assay: Inhibition of ram seminal vesicle COX1 at 100 ppm; type: tissue-based
T1 sequence (whole entry): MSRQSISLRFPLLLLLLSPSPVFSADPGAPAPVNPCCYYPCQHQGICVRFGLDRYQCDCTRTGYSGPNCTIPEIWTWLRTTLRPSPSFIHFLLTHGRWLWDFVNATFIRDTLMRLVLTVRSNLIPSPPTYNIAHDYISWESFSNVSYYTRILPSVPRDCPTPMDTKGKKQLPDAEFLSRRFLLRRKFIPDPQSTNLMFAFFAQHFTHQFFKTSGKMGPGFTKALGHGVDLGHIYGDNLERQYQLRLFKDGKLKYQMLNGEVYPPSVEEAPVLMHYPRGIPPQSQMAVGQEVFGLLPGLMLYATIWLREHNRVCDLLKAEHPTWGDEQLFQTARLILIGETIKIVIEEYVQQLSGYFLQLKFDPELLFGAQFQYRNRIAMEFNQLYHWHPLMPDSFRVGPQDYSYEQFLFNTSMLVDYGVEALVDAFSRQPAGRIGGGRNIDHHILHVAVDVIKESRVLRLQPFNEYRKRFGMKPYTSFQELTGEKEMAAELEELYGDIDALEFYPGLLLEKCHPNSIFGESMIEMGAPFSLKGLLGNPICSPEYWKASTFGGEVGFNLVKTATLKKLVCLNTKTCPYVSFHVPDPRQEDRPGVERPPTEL

inhibition [4] [%] | Structure (SMILES) | inhibition [1] [%] | deltaA [2] [%] | inhibition [3] [%]
58 | CC(=O)CCCCCCCCCCCC[C@H]1CC[C@@H](OC(C)=O)[C@@H](C)N1 | 75 | < 10 | 50
33 | COc1cc(/C=C/C(=O)O[C@@H]2CC[C@H](CCCCCCCCCCC(C)=O)N[C@@H]2C)ccc1O |  | 40 | 50
40 | CC(=O)CCCCCCCCCCCC[C@H]1CC[C@@H](O)[C@@H](C)N1 | 75 | < 10 | 50
 | C[C@@H]1O[C@@H](OC[C@H]2O[C@@H](Oc3c(-c4ccc(O)c(O)c4)oc4cc(O)cc(O)c4c3=O)[C@H](O)[C@@H](O)[C@@H]2O)[C@H](O)[C@H](O)[C@H]1O |  | 92 | 
